Source: patent US20140242707A1, “Compositions and Methods for Diagnosing Hypercoagulability and Hypocoagulability” (Philadelphia Health & Education Corporation d/b/a Drexel …, priority 2011, published 2014)
Like-named read-outs stand apart in the source and are kept apart here.

What was measured:
[1] = tested on: Smoker and normal subject plasma; test: Thrombelastography of smoker and normal subject plasma (COHF assay); format: biochemical, human; details: for final elastic modulus (G), within group vs Control: smoker and normal plasma, 100 μM CORM-2 or 30 mM PHA
Protocol: Smoking subjects, free of thrombotic or hemorrhagic disease, between the ages of 19 to 50 years of age were recruited (n=20). All comparative data are presented as mean±SD. The male:female ratio (M:F) was 14:6, and the smoking group's age was 32.8±8.7 years. This cohort smoked 1.0±0.4 packs of cigarettes per day. After written consent was obtained, the smoking subjects verified that they had smoked two cigarettes within 90 minutes prior to presentation as they would ordinarily do during the day. Noninvasive pulse oximetry was performed, with COHb found to be 5.0±2.7% for the smoking cohort. Whole blood was obtained from the smokers via venipuncture of an antecubital or hand vein and was anticoagulated with sodium citrate (9 parts blood to 1 part citrate). The blood was immediately centrifuged at 3000×g for 15 minutes at room temperature, with plasma decanted, aliquoted and stored at −80° C. prior to experimentation. Frozen, citrated plasma collected from 20 nonsmoking, age-matched normal subjects (30.7±8.7 years, M:F of 10:10) was obtained from a commercial source. Smoker and normal subject plasma was thawed and subjected to thrombelastographic analyses as previously described for 15 min at 37° C. (Nielsen et al., 2011, Blood Coagul Fibrinolysis, 22: 657-661). […] This pattern of enhanced clot development without decreased time to onset of coagulation is typical of CO exposure (Nielsen et al., 2009, Blood Coagul Fibrinolysis, 20: 377-380; Nielsen et al., 2010, Blood Coagul Fibrinolysis, 21: 349-353; Nielsen et al., 2011, Blood Coagul Fibrinolysis, 22: 657-661). […] Using a modification of the previously described assay (Nielsen et al., 2011, Blood Coagul Fibrinolysis, 22: 657-661), hypercoagulability was defined as a G value 95% confidence interval value of the normal cohort (2720 dynes/cm^2). For COHF likely to be present, G values had to increase≦the average percent seen in normal subjects (≦78%) in the presence of CORM-2, and G values had to decrease≦the average normal percent (≦74%) in the presence of PHA. Using these definitions, 10 smokers were hypercoagulable; 9 smokers had kinetically detectable COHF; and 5 were both hypercoagulable and COHF positive (25% of the cohort). Of interest, 3 smokers had neither hypercoagulability nor detectable COHF (15% of the cohort), with the remaining 12 smokers either hypercoagulable only or COHF positive only (60% of the population). […]

human or rabbit plasma = details: 100 μM CORM-2, humans or rabbits; cited from earlier work
human plasma = details: fibrinolytic environment; cited from earlier work
ear bleeding time = details: CORM-2 intravenously, cited from earlier work

Row | Structure (SMILES) | average percent increase in G ([1]; normal subjects, 100 μM CORM-2) [%] | final elastic modulus (G), within group vs Control [1] | increase in MRTG (human or rabbit plasma) | increase in TTG (human or rabbit plasma) | increase in MRTG (human plasma) [%] | increase in TTG (human plasma) [%] | ear bleeding time (ear bleeding time; rabbits administered intravenous tPA) | ear bleeding time (ear bleeding time; rabbits with platelet inhibition by aspirin and clopidogrel) | average percent decrease in G ([1]; normal subjects, 30 mM PHA) [%] | decrease in MRTG (human plasma) [%] | decrease in TTG (human plasma) [%]
1 | [C-]#[O+].[C-]#[O+].[C-]#[O+].[C-]#[O+].[C-]#[O+].[C-]#[O+].[Cl][Ru][Cl].[Cl][Ru][Cl] [CORM-2, tricarbonyldichlororuthenium (II) dimer] | 78 | significantly increased | 64-100% | 51-68% | 120 | 113 | near normal | normal | – | – | –
2 | ONc1ccccc1 [PHA, phenylhydroxylamine] | – | significantly decreased | – | – | – | – | – | – | 74 | 30 | 21
